Reference: US8183387B2, “Phenylpyrazole derivatives” (Taisho Pharmaceutical Co., Ltd, priority 2007, dated 2012)

molecular target: T1, human H3 receptor (Homo sapiens, UniProt Q9Y5N1); experiment: [35S]GTP-γ-S binding test; settings: not given
T1 sequence (Q9Y5N1 whole entry): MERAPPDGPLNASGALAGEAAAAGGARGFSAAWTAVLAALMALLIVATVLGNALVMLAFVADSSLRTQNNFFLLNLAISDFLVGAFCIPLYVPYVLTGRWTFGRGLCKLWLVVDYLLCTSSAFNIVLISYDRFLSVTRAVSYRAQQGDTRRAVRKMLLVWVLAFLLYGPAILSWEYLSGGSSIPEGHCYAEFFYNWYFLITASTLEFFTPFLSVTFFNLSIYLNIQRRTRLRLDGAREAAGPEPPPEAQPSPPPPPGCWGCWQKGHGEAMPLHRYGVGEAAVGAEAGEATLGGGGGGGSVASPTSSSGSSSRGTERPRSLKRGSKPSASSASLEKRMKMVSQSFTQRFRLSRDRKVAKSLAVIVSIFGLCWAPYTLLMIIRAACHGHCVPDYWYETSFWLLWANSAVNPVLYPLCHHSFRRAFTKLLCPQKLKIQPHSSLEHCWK

For `C[C@@H]1CCCN1CCCOc1ccc(-n2cc(N3CCCC3=O)cn2)cc1` [Example 30, 1-[1-(4-{3-[(2R)-2-methylpyrrolidin-1-yl]propoxy}phenyl)-1H-pyrazol-4-yl]pyrrolidine-2-one], the IC50 was 1.7 nM.

molecular target: T2, σ1 receptor (Homo sapiens, UniProt Q99720); experiment: [3H](+)pentazocine binding test; settings: [3H](+)pentazocine 8 nM, Jurkat cell membrane
T2 construct: host or cells: Jurkat cells (membrane)
Experimental: Affinity for σ1 receptor was evaluated in a [^3H](+)pentazocine binding test by Cerep, Inc. The σ1 receptor preparation used was the membrane of Jurkat cells. The Jurkat cell membrane was incubated with [^3H](+)pentazocine (8 nM) at 22° C. for 120 minutes.

T2 sequence (Q99720 whole entry): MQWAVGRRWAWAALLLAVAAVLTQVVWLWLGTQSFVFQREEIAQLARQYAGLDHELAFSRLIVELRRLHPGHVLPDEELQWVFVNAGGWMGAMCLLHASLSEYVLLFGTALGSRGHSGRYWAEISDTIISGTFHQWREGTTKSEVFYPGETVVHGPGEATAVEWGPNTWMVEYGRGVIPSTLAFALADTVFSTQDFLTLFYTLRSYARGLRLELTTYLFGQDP

In order of rising inhibition at 10 µM:
1. C[C@@H]1CCCN1CCCOc1ccc(-n2cc(C(=O)N3CCN(C)CC3)cn2)cc1 [Example 55, (4-methylpiperazin-1-yl)[1-(4-{3-[(2R)-2-methylpyrrolidin-1-yl]propoxy}phenyl)-1H-pyrazol-4-yl]methanone]  3%
2. C[C@@H]1CCCN1CCCOc1ccc(-n2cc(C(=O)N3CCCOCC3)cn2)cc1 [Example 54, [1-(4-{3-[(2R)-2-methylpyrrolidin-1-yl]propoxy}phenyl)-1H-pyrazol-4-yl](1,4-oxazepan-4-yl)methanone]  39%

tested on: CHL/IU cells; experiment: Cytotoxicity test; assay type: cell-based, Chinese hamster; settings: 48 hours culture, Cell counting kit-8
Experimental: Chinese hamster lung fibroblast-derived CHL/IU cells (DS Pharma Biomedical Co., Ltd., Japan) were seeded, and the medium was replaced on the following day by another medium (MEM+2 mM L-Glutamine+10% CS (all purchased from Invitrogen)) containing a test compound at various concentrations, followed by culture for an additional 48 hours. Using a Cell counting kit-8 (Dojindo Laboratories, Japan), the survival rate of the cells was determined to obtain a curve whose horizontal axis represents the test compound concentration and whose vertical axis represents the survival rate. The curve thus obtained was used to determine the concentration of the test compound at which the survival rate was 50%. As a result, this concentration was 275, 441 and >640 mmol/L for the compounds of Examples 56, 62 and 70, respectively.

In order of rising “concentration of the test compound at which the survival rate was 50%” value:
1. C[C@@H]1CCCN1CCCOc1ccc(-n2cc(C(=O)N3CCCC3)cn2)cc1 [Example 56, [1-(4-{3-[(2R)-2-methylpyrrolidin-1-yl]propoxy}phenyl)-1H-pyrazol-4-yl](pyrrolidin-1-yl)methanone]  275000 µM
2. C[C@@H]1CCCN1CCCOc1ccc(-n2cc(C(=O)N3CCOCC3)cn2)cc1F [Example 62, [1-(3-fluoro-4-{3-[(2R)-2-methylpyrrolidin-1-yl]propoxy}phenyl)-1H-pyrazol-4-yl](morpholin-4-yl)methanone]  441000 µM

tested on: not listed separately; experiment: Metabolic stability test in human liver; assay type: in vitro ADME; settings: liver microsomes, pH 7.4; human liver microsome 1 mg protein/mL, test compound 1 μM, 37° C.
Experimental: Using human liver microsome (Xenotech, H0630), the in vitro metabolic half-life was calculated. A reaction solution (300 μL) was prepared to contain a test compound at 1 μM in 250 mM Na—K-phosphate buffer (pH 7.4) containing, at final concentrations, 2.4 mM MgCl2, 1.5 mM glucose-6-phosphate (G-6-P), 0.18 U/mL glucose-6-phosphate dehydrogenase (G-6-P DH), 69 mM KCl, 0.16 mM (3-nicotinamide-adenine dinucleotide phosphate, oxidized form (NADP) and 1 mg microsomal protein/mL. After pre-incubation at 37° C. for 5 minutes, the NADP solution was added to initiate the reaction. The incubation time was set to 0, 10, 20, 30, 45 or 60 minutes. The reaction was stopped by addition of a CH3CN:CH3OH (1:1) solution in the same volume as that of the reaction solution. The sample after the reaction was centrifuged at 3639×g at 4° C. for 10 minutes, and the resulting supernatant was analyzed by LC/MS. Using the time period during which linearity was observed, the metabolic half-life was calculated from the slope.

In the case of `C[C@@H]1CCCN1CCCOc1ccc(-n2cc(C(=O)N3CCOCC3)cn2)cc1` [Example 6, 4-{[1-(4-{3-[(2R)-2-methylpyrrolidin-1-yl]propoxy}phenyl)-1H-pyrazol-4-yl]carbonyl}morpholine], the half-life at 1 μM is reported as ≥ 3 h.

molecular target: T1, human H3 receptor; experiment: H3 receptor binding test (R(−)-α-methyl[3H]histamine); parameters: purchased Euroscreen ES-392-M; host or cells: CHO-K1; settings: inhibition of R(−)-α-methyl[3H]histamine (2 nM) binding, membrane of human H3 receptor-expressing CHO-K1 cells
Experimental: A membrane preparation of human H3 receptor-expressing CHO-K1 cells (Euroscreen, ES-392-M, 15 μg protein/200 μl), R(−)-α-methyl[^3H]histamine (Amersham, TRK-1017, specific activity: 1.74 TBq/mmol, 2 nM) and a test drug were reacted at room temperature for 1 hour. After completion of the reaction, the reaction mixture was subjected to suction filtration through a 0.3% polyethyleneimine-treated glass filter (GF/C). The glass filter was washed five times with 50 mM Tris-HCl washing solution (pH 7.4) containing 5 mM EDTA. After washing, the glass filter was dried and a scintillator was added thereto, followed by measurement of radioactivity on the filter using a liquid scintillation counter.
A fixed concentration (2 nM) of R(−)-α-methyl[^3H]histamine was reacted under the above conditions with each test drug at various concentrations to obtain an inhibition curve.

In order of rising IC50:
1. C[C@@H]1CCCN1CCCOc1ccc(-n2cc(NC(=O)Cc3ccc(O)cc3)cn2)cc1 [Example 45, 2-(4-hydroxyphenyl)-N-[1-(4-{3-[(2R)-2-methylpyrrolidin-1-yl]propoxy}phenyl)-1H-pyrazol-4-yl]acetamide]  1.1 nM
2. C[C@@H]1CCCN1CCCOc1ccc(-n2cc(NC(=O)Cc3cccnc3)cn2)cc1 [Example 46, N-[1-(4-{3-[(2R)-2-methylpyrrolidin-1-yl]propoxy}phenyl)-1H-pyrazol-4-yl]-2-(pyridin-3-yl)acetamide]  1.4 nM
3. C[C@@H]1CCCN1CCCOc1ccc(-n2cc(NC(=O)Cc3ccncc3)cn2)cc1 [Example 47, N-[1-(4-{3-[(2R)-2-methylpyrrolidin-1-yl]propoxy}phenyl)-1H-pyrazol-4-yl]-2-(pyridin-4-yl)acetamide]  1.5 nM
4. C[C@@H]1CCCN1CCCOc1ccc(-n2cc(C(=O)N3CCCC3)cn2)cc1 [Example 56, [1-(4-{3-[(2R)-2-methylpyrrolidin-1-yl]propoxy}phenyl)-1H-pyrazol-4-yl](pyrrolidin-1-yl)methanone]  2.8 nM
5. C[C@@H]1CCCN1CCCOc1ccc(-n2cc(N(C)S(C)(=O)=O)cn2)cc1 [Example 49, N-methyl-N-[1-(4-{3-[(2R)-2-methylpyrrolidin-1-yl]propoxy}phenyl)-1H-pyrazol-4-yl]methanesulfonamide]  3.1 nM
6. C[C@@H]1CCCN1CCCOc1ccc(-n2cc(N3CCCC3=O)cn2)cc1 [Example 30, 1-[1-(4-{3-[(2R)-2-methylpyrrolidin-1-yl]propoxy}phenyl)-1H-pyrazol-4-yl]pyrrolidine-2-one]  3.3 nM
7. C[C@@H]1CCCN1CCCOc1ccc(-n2cc(NS(C)(=O)=O)cn2)cc1 [Example 48, N-[1-(4-{3-[(2R)-2-methylpyrrolidin-1-yl]propoxy}phenyl)-1H-pyrazol-4-yl]methanesulfonamide]  4.1 nM
8. C[C@@H]1CCCN1CCCOc1ccc(-n2cc(C(=O)N3CCCOCC3)cn2)cc1 [Example 54, [1-(4-{3-[(2R)-2-methylpyrrolidin-1-yl]propoxy}phenyl)-1H-pyrazol-4-yl](1,4-oxazepan-4-yl)methanone]  4.1 nM
9. C[C@@H]1CCCN1CCCOc1ccc(-n2cc(C(=O)NCCOCCO)cn2)cc1 [Example 69, N-[2-(2-hydroxyethoxy)ethyl]-1-{4-[3-(2-methylpyrrolidin-1-yl)propoxy]phenyl}-1H-pyrazole-4-carboxamide]  4.6 nM
10. C[C@@H]1CCCN1CCCOc1ccc(-n2cc(C(=O)N3CCN(C)CC3)cn2)cc1 [Example 55, (4-methylpiperazin-1-yl)[1-(4-{3-[(2R)-2-methylpyrrolidin-1-yl]propoxy}phenyl)-1H-pyrazol-4-yl]methanone]  5.2 nM
11. C[C@@H]1CCCN1CCCOc1ccc(-n2cc(C(=O)N3CCOC(O)C3)cn2)cc1 (stereo partly drawn) [Example 65, (2-hydroxymorpholin-4-yl)[1-(4-{3-[(2R)-2-methylpyrrolidin-1-yl]propoxy}phenyl)-1H-pyrazol-4-yl]methanone]  5.9 nM
12. CC1CCCN1CCCOc1ccc(-n2cc(N3C(=O)CCC3=O)cn2)cc1 (stereo not drawn) [Example 52, 1-(1-{4-[3-(2-methylpyrrolidin-1-yl)propoxy]phenyl}-1H-pyrazol-4-yl)pyrrolidine-2,5-dione]  6 nM
13. C[C@@H]1CN(C(=O)c2cnn(-c3ccc(OCCCN4CCC[C@H]4C)cc3)c2)C[C@H](C)O1 [Example 53, (2,6-dimethylmorpholin-4-yl)[1-(4-{3-[(2R)-2-methylpyrrolidin-1-yl]propoxy}phenyl)-1H-pyrazol-4-yl]methanone]  6.1 nM
14. CCC1CCCN1CCCOc1ccc(-n2cc(C(=O)N3CCOCC3)cn2)cc1 (stereo not drawn) [Example 58, (1-{4-[3-(2-ethylpyrrolidin-1-yl)propoxy]phenyl}-1H-pyrazol-4-yl)(morpholin-4-yl)methanone]  8.7 nM
15. C[C@@H]1CCCN1CCCOc1ccc(-n2cc(C(=O)N3CCOCC3)cn2)cc1F [Example 62, [1-(3-fluoro-4-{3-[(2R)-2-methylpyrrolidin-1-yl]propoxy}phenyl)-1H-pyrazol-4-yl](morpholin-4-yl)methanone]  8.7 nM
16. C[C@@H]1CCCN1CCCOc1ccc(-n2cc(C(=O)N3CCOCC3)cn2)cc1Br [Example 64, [1-(3-bromo-4-{3-[(2R)-2-methylpyrrolidin-1-yl]propoxy}phenyl)-1H-pyrazol-4-yl](morpholin-4-yl)methanone]  10 nM
17. C[C@@H]1CCCN1CCCOc1ccc(-n2cc(NS(=O)(=O)c3cccnc3)cn2)cc1 [Example 51, N-[1-(4-{3-[(2R)-2-methylpyrrolidin-1-yl]propoxy}phenyl)-1H-pyrazol-4-yl]pyridine-3-sulfonamide]  13.7 nM
18. Cc1cc(OCCCN2CCC[C@H]2C)ccc1-n1cc(C(=O)N2CCOCC2)cn1 [Example 63, [1-(2-methyl-4-{3-[(2R)-2-methylpyrrolidin-1-yl]propoxy}phenyl)-1H-pyrazol-4-yl](morpholin-4-yl)methanone]  20.7 nM
19. CC1CCCN1CCCOc1ccc(-n2cc(NS(=O)(=O)c3ccc(C#N)cc3)cn2)cc1 (stereo not drawn) [Example 50, 4-cyano-N-(1-{4-[3-(2-methylpyrrolidin-1-yl)propoxy]phenyl}-1H-pyrazol-4-yl)benzenesulfonamide]  31.9 nM
20. C[C@@H]1CCCN1CCCCOc1ccc(-n2cc(C(=O)N3CCOCC3)cn2)cc1 [Example 61, [1-(4-{4-[(2R)-2-methylpyrrolidin-1-yl]butoxy}phenyl)-1H-pyrazol-4-yl](morpholin-4-yl)methanone]  39.2 nM
21. CC1CCN(CCCOc2ccc(-n3cc(C(=O)N4CCOCC4)cn3)cc2)C1 (stereo not drawn) [Example 57, (1-{4-[3-(3-methylpyrrolidin-1-yl)propoxy]phenyl}-1H-pyrazol-4-yl)(morpholin-4-yl)methanone]  50.7 nM
22. C[C@@H]1CCCN1CCCOc1ccc(-n2cc(C(=O)N(CCO)CC(=O)O)cn2)cc1 [Example 68, N-(2-hydroxyethyl)-N-{[1-(4-{3-[(2R)-2-methylpyrrolidin-1-yl]propoxy}phenyl)-1H-pyrazol-4-yl]carbonyl}glycine]  74.8 nM
23. O=C(c1cnn(-c2ccc(OCCCN3CCCC3(F)F)cc2)c1)N1CCOCC1 [Example 59, (1-{4-[3-(2,2-difluoropyrrolidin-1-yl)propoxy]phenyl}-1H-pyrazol-4-yl)(morpholin-4-yl)methanone]  1180 nM
24. C[C@@H]1CCCN1CCOc1ccc(-n2cc(C(=O)N3CCOCC3)cn2)cc1 [Example 60, [1-(4-{2-[(2R)-2-methylpyrrolidin-1-yl]ethoxy}phenyl)-1H-pyrazol-4-yl](morpholin-4-yl)methanone]  1560 nM
